Data published in patent US8110571B2, “Benzimidazole and benzothiazole derivatives, method for preparing same, use thereof as drugs, pharmaceutical compositions and novel use especially as c-MET inhibitors” (Aventis Pharma S.A., priority 2005, dated 2012).
Counter-ions that a name gives are not always drawn.

Structure (SMILES) | melting point [°C]
O=C(NCCN1CCCCCC1)Nc1nc2ccc(OS(=O)(=O)c3c(Cl)cccc3Cl)cc2s1 (as salt: benzenesulfonate) [Example 76, 2-{[(2-azepan-1-ylethyl)carbamoyl]amino}-1,3-benzothiazol-6-yl 2,6-dichlorobenzenesulfonate] | 146
O=C(NCc1cccnc1)Nc1nc2ccc(OS(=O)(=O)c3c(Cl)cccc3Cl)cc2s1 (as salt: benzenesulfonate) [Example 78, 2-{[(pyridin-3-ylmethyl)carbamoyl]amino}-1,3-benzothiazol-6-yl 2,6-dichlorobenzenesulfonate] | 227
O=C(NCCC1CCNCC1)Nc1nc2ccc(OS(=O)(=O)c3c(Cl)cccc3Cl)cc2s1 (as salt: trifluoroacetic acid salt) [Example 35, 2-{[(2-Piperidin-4-ylethyl)carbamoyl]amino}-1,3-benzothiazol-6-yl 2,6-dichlorobenzenesulfonate] | 240

Continued, values first:

melting point [°C] | Structure (SMILES)
168 | Cc1cccc(Cl)c1S(=O)(=O)Oc1ccc2[nH]c(NC(=O)NCCN3CCOCC3)nc2c1 [Example 11, 2-{[(2-Morpholin-4-ylethyl)carbamoyl]amino}-1H-benzimidazol-5-yl 2-chloro-6-methylbenzenesulfonate]
128 | Nc1cc(Cl)cc(Cl)c1S(=O)(=O)Oc1ccc2nc(NC(=O)NCCN3CCOCC3)sc2c1 [Example 39, 2-{[(2-Morpholin-4-ylethyl)carbamoyl]amino}-1,3-benzothiazol-6-yl 2-amino-4,6-dichlorobenzenesulfonate]
